# Test results from patent US20250381198A1 (Melt Pharmaceuticals, Inc., priority 2024, published 2025).
# Marks after values point to notes of the source that are not given here.
# Test system: subjects undergoing cataract extraction with lens replacement (CELR)
# Test: Phase 3: adverse events (safety analysis set)
# Type: in vivo, human
# Description: The safety of MELT-300 was performed at baseline, in the course of surgery (intraoperatively), postoperatively on Day 1, and on Day 3+1 day post dose of study medication. Safety assessment included monitoring of AEs, vital sign measurements, and physical examinations.
# An overview of adverse events (AEs) is provided in TABLE 57 for the safety analysis set. Reported data includes an overall summary of the presence of any AEs, treatment-emergent ocular adverse events (TEAEs), treatment-related TEAEs, TEAE of special interest (TEAESI), serious AEs (SEAs), and treatment-emergent SAEs (TESAE). Categories were not mutually exclusive. Results include the number of subjects, percent of subjects, and number of events in each category, respectively. A summary of treatment-emergence adverse events (TEAEs) by location, system organ class, and preferred term for the safety analysis set is provided in TABLE 58. A summary of treatment-related treatment-emergent adverse events (TRTEAEs) by system organ class, and preferred term for the safety analysis set is provided in TABLE 59. No SAEs (overall), TESAEs, or treatment-related TESAEs were observed. No SAEs resulting in death or discontinuation of the study was observed.
# [1] = Location: Ocular, Safety analysis set
# [2] = Location: Overall, Safety Analysis Set
# [3] = Location: Overall, Safety analysis set
compound,measurement,setting,value
"Cc1ncc2n1-c1ccc(Cl)cc1C(c1ccccc1F)=NC2 [Midazolam, 8-chloro-6-(2-fluorophenyl)-1-methyl-4H-imidazo[1,5-a][1,4]benzodiazepine]","Any Unexpected Treatment-Related TEAE, subjects",[1],0 n (%)
same,"TEAESI: Abuse-related AEs, events",[1],0 #
same,"TEAESI: Abuse-related AEs, subjects",[1],0 n (%)
same,"TEAESI: Cardiovascular AEs, events",[1],0 #
same,"TEAESI: Cardiovascular AEs, subjects",[1],1 (1.1) n (%)
same,"TEAESI: Ketamine emergence delirium, events",[1],0 #
same,"TEAESI: Ketamine emergence delirium, subjects",[1],0 n (%)
same,"TEAESI: Neurocognitive AEs, events",[1],0 #
same,"TEAESI: Neurocognitive AEs, subjects",[1],0 n (%)
same,"TEAESI: Oral/pharyngeal AEs, events",[1],0 #
same,"TEAESI: Oral/pharyngeal AEs, subjects",[1],0 n (%)
same,"TEAESI: Oversedation requiring the use of flumazenil, events",[1],0 #
same,"TEAESI: Oversedation requiring the use of flumazenil, subjects",[1],0 n (%)
same,"TEAESI: Respiratory AEs, events",[1],0 #
same,"TEAESI: Respiratory AEs, subjects",[1],1 (1.1) n (%)
same,TEAE: Abnormal sensation in eye,[2],0 n
same,TEAE: Amnesia,[2],0 n
same,TEAE: Anxiety,[2],0 n
same,TEAE: Back pain,[2],0 n
same,TEAE: Balance disorder,[2],0 n
same,TEAE: Blood pressure increased,[2],0 n
same,TEAE: Blood pressure systolic increased,[2],0 n
same,TEAE: Bradycardia,[2],0 n
same,TEAE: Corneal abrasion,[2],0 n
same,TEAE: Corneal oedema,[2],0 n
same,TEAE: Cough,[2],0 n
same,TEAE: Dental local anaesthesia,[2],0 n
same,TEAE: Diplopia,[2],0 n
same,TEAE: Dizziness,[2],0 n
same,TEAE: Fatigue,[2],0 n
same,TEAE: Gastrointestinal disorders (System Organ Class),[2],0 n
same,TEAE: Glare,[2],0 n
same,TEAE: Hiccups,[2],0 n
same,TEAE: Hypertension,[2],0 n
same,TEAE: Hypoaesthesia oral,[2],0 n
same,TEAE: Infections and infestations (System Organ Class),[2],0 n
same,"TEAE: Injury, poisoning and procedural complications (System Organ Class)",[2],0 n
same,TEAE: Instillation site pain,[2],0 n
same,TEAE: Investigations (System Organ Class),[2],0 n
same,TEAE: Lacrimation increased,[2],0 n
same,TEAE: Lethargy,[2],0 n
same,TEAE: Musculoskeletal and connective tissue disorders (System Organ Class),[2],0 n
same,TEAE: Myalgia,[2],0 n
same,TEAE: Nasal Discomfort,[2],0 n
same,TEAE: Nausea,[2],0 n
same,TEAE: Neck pain,[2],0 n
same,TEAE: Ocular discomfort,[2],0 n
same,TEAE: Oxygen saturation decreased,[2],0 n
same,TEAE: Photophobia,[2],0 n
same,TEAE: Photopsia,[2],0 n
same,TEAE: Post procedural hypotension,[2],0 n
same,TEAE: Procedural nausea,[2],0 n
same,TEAE: Procedural pain,[2],0 n
same,TEAE: Procedural vomiting,[2],0 n
same,TEAE: Product after taste,[2],0 n
same,TEAE: Product issues (System Organ Class),[2],0 n
same,TEAE: Psychiatric disorders (System Organ Class),[2],0 n
same,TEAE: Pyrexia,[2],0 n
same,TEAE: Sinusitis,[2],0 n
same,TEAE: Surgical and medical procedures (System Organ Class),[2],0 n
same,TEAE: Taste disorder,[2],0 n
same,TEAE: Vascular disorders (System Organ Class),[2],0 n
same,TEAE: Visual field defect,[2],0 n
same,TEAE: Visual impairment,[2],0 n
same,"Any AE, events",[3],24 #
same,"Any AE, subjects",[3],16 (18.0) n (%)
same,"Any Grade 3+ TEAE, events",[3],0 #
same,"Any Grade 3+ TEAE, subjects",[3],0 n (%)
same,"Any SAE, events",[3],0 #
same,"Any SAE, subjects",[3],0 n (%)
same,"Any TEAE Resulting in Death, events",[3],0 #
same,"Any TEAE Resulting in Death, subjects",[3],0 n (%)
same,"Any TEAE Resulting in Study Drug Interruption, events",[3],0 #
same,"Any TEAE Resulting in Study Drug Interruption, subjects",[3],0 n (%)
same,"Any TEAE Resulting in Study Drug Withdrawal, events",[3],0 #
same,"Any TEAE Resulting in Study Drug Withdrawal, subjects",[3],0 n (%)
same,"Any TEAE, events",[3],20 #
same,"Any TEAE, subjects",[3],13 (14.6) n (%)
same,"Any TEAESI, events",[3],2 #
same,"Any TEAESI, subjects",[3],2 (2.2) n (%)
same,"Any TESAE, events",[3],0 #
same,"Any TESAE, subjects",[3],0 n (%)
same,"Any Treatment-Related TEAE Resulting in Death, events",[3],0 #
same,"Any Treatment-Related TEAE Resulting in Death, subjects",[3],0 n (%)
same,"Any Treatment-Related TEAE, events",[3],4 #
same,"Any Treatment-Related TEAE, subjects",[3],2 (2.2) n (%)
same,"Any Treatment-Related TEAESI, events",[3],1 #
same,"Any Treatment-Related TEAESI, subjects",[3],1 (1.1) n (%)
same,"Any Treatment-Related TESAE, events",[3],0 #
same,"Any Treatment-Related TESAE, subjects",[3],0 n (%)
same,"Any Unexpected TEAE, events",[3],9 #
same,"Any Unexpected TEAE, subjects",[3],6 (6.7) n (%)
same,"Any Unexpected Treatment-Related TEAE, events",[3],0 #
same,"Any Unexpected Treatment-Related TEAE, subjects",[3],0 n (%)
same,"TEAESI: Abuse-related AEs, events",[3],0 #
same,"TEAESI: Abuse-related AEs, subjects",[3],0 n (%)
same,"TEAESI: Cardiovascular AEs, events",[3],1 #
same,"TEAESI: Cardiovascular AEs, subjects",[3],1 (1.1) n (%)
same,"TEAESI: Ketamine emergence delirium, events",[3],0 #
same,"TEAESI: Ketamine emergence delirium, subjects",[3],0 n (%)
same,"TEAESI: Neurocognitive AEs, events",[3],0 #
same,"TEAESI: Neurocognitive AEs, subjects",[3],0 n (%)
same,"TEAESI: Oral/pharyngeal AEs, events",[3],0 #
same,"TEAESI: Oral/pharyngeal AEs, subjects",[3],0 n (%)
same,"TEAESI: Oversedation requiring the use of flumazenil, events",[3],0 #
same,"TEAESI: Oversedation requiring the use of flumazenil, subjects",[3],0 n (%)
same,"TEAESI: Respiratory AEs, events",[3],1 #
same,"TEAESI: Respiratory AEs, subjects",[3],1 (1.1) n (%)
same,Treatment-related TEAE: Anxiety,Safety Analysis Set,0 n
same,Treatment-related TEAE: Blood pressure increased,Safety Analysis Set,0 n
same,Treatment-related TEAE: Bradycardia,Safety Analysis Set,0 n
same,Treatment-related TEAE: Cardiac disorders (System Organ Class),Safety Analysis Set,0 n
same,Treatment-related TEAE: Dental local anaesthesia,Safety Analysis Set,0 n
same,Treatment-related TEAE: Dizziness,Safety Analysis Set,0 n
same,Treatment-related TEAE: Eye disorders (System Organ Class),Safety Analysis Set,0 n
same,Treatment-related TEAE: Hiccups,Safety Analysis Set,0 n
same,"Treatment-related TEAE: Injury, poisoning and procedural complications (System Organ Class)",Safety Analysis Set,0 n
same,Treatment-related TEAE: Investigations (System Organ Class),Safety Analysis Set,0 n
same,Treatment-related TEAE: Lethargy,Safety Analysis Set,0 n
same,Treatment-related TEAE: Oxygen saturation decreased,Safety Analysis Set,0 n
same,Treatment-related TEAE: Procedural nausea,Safety Analysis Set,0 n
same,Treatment-related TEAE: Procedural vomiting,Safety Analysis Set,0 n
same,Treatment-related TEAE: Product after taste,Safety Analysis Set,0 n
same,Treatment-related TEAE: Product issues (System Organ Class),Safety Analysis Set,0 n
same,Treatment-related TEAE: Psychiatric disorders (System Organ Class),Safety Analysis Set,0 n
same,Treatment-related TEAE: Surgical and medical procedures (System Organ Class),Safety Analysis Set,0 n
same,Treatment-related TEAE: Tachycardia,Safety Analysis Set,0 n
same,Treatment-related TEAE: Visual impairment,Safety Analysis Set,0 n
